Reference: EP0311163A2, “Use of site-specific modified lipolytic enzymes for the selective hydrolysis of organized lipid structures” (DUPHAR INTERNATIONAL RESEARCH B.V, priority 1987, dated 1989)

Key:
Test in all cases: Kinetic measurement with micellar L-dioctanoyl-lecithin (Vmax)
Format in all cases: biochemical
Settings in all cases: micellar substrate, titration of fatty acid with 10.3 mM NaOH at pH 6.0
[1] = test system: Porcine pancreatic phospholipase A₂, [ε-Pal-Lys¹¹⁶]AMPA
Experimental: (§1) […]. A value of 8.8 is used for the N-terminal shortened bovine pancreas enzyme fragments missing Trp³. • b. The binding of the PLA's to micellar cis-9-octadecenyl phosphocholine is determined by means of UV absorption difference spectroscopy (De Aranjo et al., Biochem. 18, (1979), 580-586;; and Hille et al., Biochem. 20, (1981), 4068-4073). • c. Monolayer experiments are carried out using the zero order through with two compartments and the surface barostat technique for measuring phospholipid hydrolysis (Verger and De Haas, Chem. Phys. Lipids, 10, (1973), 127-136). Calculation of the induction time (τ) is carried out as described by Verger et al. J. Biol. Chem. 248 (1973), 4023-4034). Surface tension (π) is measured by means of the plate method by Wilhelmy using a thin platinum plate attached to a Beckman R II C Model LM 600 microbalance. • d. Kinetic measurements with micellar diC₈PC are carried out according to De Haas et al, Biochem. Biophys. Acta, 239, (1971) 252-266.
(§2) This means that the inherent catalytic activity of these pPLA's is not affected by the site-specific acylation. Although acylation of Lys¹¹⁶ with acetyl or maleyl results in a lower Vmax, the remaining activity is sufficient to hydrolyse micellar short chain lecithins effectively. TABLE A

[2] = test system: Porcine pancreatic phospholipase A₂, [ε-Lau-Lys¹¹⁶]AMPA
Experimental: as §1, §2

[3] = target: T1, Bovine pancreatic phospholipase A₂, [Arg⁶,ε-Pal-Lys¹⁰]-AMPA (Bos taurus, UniProt P00593, N28R)
T1 construct: Conversion of fully ε-amidinated bovine pancreatic AMPrec in [Arg⁶, ε-Pal-Lys¹⁰]-AMPA; from tissue; host or cells: bovine pancreas; semisynthetic: amidinated fragment 11-123 re-elongated with Pal-Lys, Ile, Met and Ala.Leu.Trp.Gln.Phe.Arg.Gly
Experimental: as §1, §2

[4] = test system: Porcine pancreatic phospholipase A₂, [ε-Mal-Lys¹¹⁶]AMPA
Experimental: as §1, §2

[5] = target: T2, Bovine pancreatic phospholipase A₂, [Arg⁶]-AMPA (Bos taurus, UniProt P00593, N28R)
T2 construct: fully ε-amidinated according to the method by Wallace and Harris, Biochem. J., 217, (1984), 589-594, and converted into AMPA; from tissue; host or cells: bovine pancreas
Experimental: as §1, §2

[6] = test system: Porcine pancreatic phospholipase A₂, [ε-NH₂-Lys¹¹⁶]AMPA
Experimental: as §1, §2

[7] = target: T3, Porcine pancreatic phospholipase A₂ (PLA), native (Sus scrofa, UniProt P00592)
T3 construct: pancreatic pro-PLA's can be purified and converted into the corresponding PLA's; from tissue; host or cells: pig pancreas
Experimental: as §1, §2

[8] = target: T4, Porcine pancreatic phospholipase A₂, AMPA (fully ε-amidinated PLA) (Sus scrofa, UniProt P00592)
T4 construct: fully ε-amidinated according to the method by Wallace and Harris, Biochem. J., 217, (1984), 589-594, and converted into AMPA; from tissue; host or cells: pig pancreas; chemically amidinated as the pro-enzyme, then converted to the active enzyme
Experimental: as §1, §2

[9] = target: T5, Bovine pancreatic phospholipase A₂, AMPA (fully ε-amidinated PLA) (Bos taurus, UniProt P00593)
T5 construct: fully ε-amidinated according to the method by Wallace and Harris, Biochem. J., 217, (1984), 589-594, and converted into AMPA; from tissue; host or cells: bovine pancreas; chemically amidinated as the pro-enzyme, then converted to the active enzyme
Experimental: as §1, §2

[10] = test system: Porcine pancreatic phospholipase A₂, [ε-Ac-Lys¹¹⁶]AMPA
Experimental: as §1, §2

[11] = test system: Porcine pancreatic phospholipase A₂, [ε-Ol-Lys¹¹⁶]AMPA
Experimental: as §1, §2

[12] = target: T6, Bovine pancreatic phospholipase A₂ (PLA), native (Bos taurus, UniProt P00593)
T6 construct: pancreatic pro-PLA's can be purified and converted into the corresponding PLA's; from tissue; host or cells: bovine pancreas
Experimental: as §1, §2

[13] = test system: Porcine pancreatic phospholipase A₂, [ε-Cap-Lys¹¹⁶]AMPA
Experimental: as §1, §2

T3 sequence (P00592 23-146): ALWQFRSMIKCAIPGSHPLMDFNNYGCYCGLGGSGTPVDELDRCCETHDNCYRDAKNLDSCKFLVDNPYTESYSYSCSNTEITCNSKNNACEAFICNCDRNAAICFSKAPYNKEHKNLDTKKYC
T4 sequence (P00592 23-146): as above
T1 sequence (P00593 23-145 N28R): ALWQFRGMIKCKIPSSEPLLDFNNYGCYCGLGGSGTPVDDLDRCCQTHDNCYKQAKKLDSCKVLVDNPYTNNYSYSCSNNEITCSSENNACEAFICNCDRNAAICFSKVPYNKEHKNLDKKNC
T2 sequence (P00593 23-145 N28R): as above
T5 sequence (P00593 23-145): as the sequence (P00593 23-145 N28R) above, with R6N counted along it
T6 sequence (P00593 23-145): as the sequence (P00593 23-145 N28R) above, with R6N counted along it

CCCCCCCC(=O)OC[C@H](COP(=O)([O-])OCC[N+](C)(C)C)OC(=O)CCCCCCC [L-dioctanoyl-lecithin, 1,2-dioctanoyl-sn-glycero-3-phosphocholine]
Vmax micellar L-dioctanoyl-lecithin [1]: 2200 µequiv. min⁻¹ mg⁻¹ | Vmax micellar L-dioctanoyl-lecithin [2]: 2500 µequiv. min⁻¹ mg⁻¹ | Vmax micellar L-dioctanoyl-lecithin [3]: 5600 µequiv. min⁻¹ mg⁻¹ | Vmax micellar L-dioctanoyl-lecithin [4]: 405 µequiv. min⁻¹ mg⁻¹ | Vmax micellar L-dioctanoyl-lecithin [5]: 5900 µequiv. min⁻¹ mg⁻¹ | Vmax micellar L-dioctanoyl-lecithin [6]: 2000 µequiv. min⁻¹ mg⁻¹ | Vmax micellar L-dioctanoyl-lecithin [7]: 2200 µequiv. min⁻¹ mg⁻¹ | Vmax micellar L-dioctanoyl-lecithin [8]: 1650 µequiv. min⁻¹ mg⁻¹ | Vmax micellar L-dioctanoyl-lecithin [9]: 2300 µequiv. min⁻¹ mg⁻¹ | Vmax micellar L-dioctanoyl-lecithin [10]: 755 µequiv. min⁻¹ mg⁻¹ | Vmax micellar L-dioctanoyl-lecithin [11]: 2600 µequiv. min⁻¹ mg⁻¹ | Vmax micellar L-dioctanoyl-lecithin [12]: 3000 µequiv. min⁻¹ mg⁻¹ | Vmax micellar L-dioctanoyl-lecithin [13]: 2100 µequiv. min⁻¹ mg⁻¹
